The numbers were not newly measured in patent publication US20260014105A1, “POWDER MIXTURE COMPRISING REPARIXIN” (Dompe' Farmaceutici SPA, priority 2022, published 2026), which cites them from elsewhere.

This series has as its system hospitalized patients with severe COVID-19 pneumonia.

For the molecule `CC(C)Cc1ccc([C@@H](C)C(=O)NS(C)(=O)=O)cc1` [reparixin, R-(−)-2-(4-isobutylphenyl)propionyl methansulfonamide], the “Clinical outcomes compared with the standard of care” value was “improved clinical outcomes”.
